Data from the supplement of paper PMC13380429.

Legend:
Details in all cases: 72 h
Vero E6 [1] = experiment: drug sensitivity score (DSS) for viability; higher = more toxic; extreme values may be limits of the assay
U2OS [2] = experiment: as above
Calu-3 [3] = experiment: as above
HepG2 [4] = experiment: as above
Caco-2 [5] = experiment: relative viability EC50 (midpoint between 100% and the lowest measured viability); higher = less toxic
U2OS [6] = experiment: as above
Caco-2 [7] = experiment: drug sensitivity score (DSS) for viability; higher = more toxic; extreme values may be limits of the assay
Caco-2 [8] = experiment: cell viability relative to DMSO; higher = less toxic
Vero E6 [9] = experiment: as above
U2OS [10] = experiment: as above
Calu-3 [11] = experiment: as above
HepG2 [12] = experiment: as above
Vero E6 [13] = experiment: relative viability EC50 (midpoint between 100% and the lowest measured viability); higher = less toxic
HepG2 [14] = experiment: as above

## CCN(CC)CCNC(=O)c1cc(Cl)c(N)cc1OC [metoclopramide]
Vero E6 [1]
  drug sensitivity score: 0
U2OS [2]
  drug sensitivity score: 0
Calu-3 [3]
  drug sensitivity score: 0
HepG2 [4]
  drug sensitivity score: 0

## CNC(=O)c1ccc(C)c(-n2c(C)cc(OCc3ccc(F)cc3F)c(Br)c2=O)c1
Caco-2 [5]
  relative viability EC50: > 10 µM
U2OS [6]
  relative viability EC50: > 10 µM
Caco-2 [7]
  drug sensitivity score: 3.1
Vero E6 [1]
  drug sensitivity score: 5
U2OS [2]
  drug sensitivity score: 3.1
Calu-3 [3]
  drug sensitivity score: 5.2
HepG2 [4]
  drug sensitivity score: 1.5
Caco-2 [8]; 1 nM
  cell viability: 90.9%
Caco-2 [8]; 10 nM
  cell viability: 95.3%
Caco-2 [8]; 100 nM
  cell viability: 93%
Caco-2 [8]; 1000 nM
  cell viability: 79.6%
Caco-2 [8]; 10000 nM
  cell viability: 75.4%
Vero E6 [9]; 1 nM
  cell viability: 98.7%
Vero E6 [9]; 10 nM
  cell viability: 92%
Vero E6 [9]; 100 nM
  cell viability: 85.5%
Vero E6 [9]; 1000 nM
  cell viability: 82.3%
Vero E6 [9]; 10000 nM
  cell viability: 58.8%
U2OS [10]; 1 nM
  cell viability: 101%
U2OS [10]; 10 nM
  cell viability: 99.2%
U2OS [10]; 100 nM
  cell viability: 90.2%
U2OS [10]; 1000 nM
  cell viability: 81.9%
U2OS [10]; 10000 nM
  cell viability: 78.7%
Calu-3 [11]; 1 nM
  cell viability: 94.7%
Calu-3 [11]; 10 nM
  cell viability: 92.6%
Calu-3 [11]; 100 nM
  cell viability: 74%
Calu-3 [11]; 1000 nM
  cell viability: 93.6%
Calu-3 [11]; 10000 nM
  cell viability: 56.8%
HepG2 [12]; 1 nM
  cell viability: 111%
HepG2 [12]; 10 nM
  cell viability: 104%
HepG2 [12]; 100 nM
  cell viability: 106%
HepG2 [12]; 1000 nM
  cell viability: 99.7%
HepG2 [12]; 10000 nM
  cell viability: 67.7%

## CC(C)CNc1ccnc(NCc2csc(-c3ccccc3)n2)n1 [KHS-101]
Vero E6 [13]
  relative viability EC50: > 10 µM
HepG2 [14]
  relative viability EC50: 1.92 µM
Caco-2 [7]
  drug sensitivity score: 4.6
Vero E6 [1]
  drug sensitivity score: 0.7
U2OS [2]
  drug sensitivity score: 1.6
Calu-3 [3]
  drug sensitivity score: 3.2
HepG2 [4]
  drug sensitivity score: 6.9
Caco-2 [8]; 1 nM
  cell viability: 91.3%
Caco-2 [8]; 10 nM
  cell viability: 103%
Caco-2 [8]; 100 nM
  cell viability: 98.1%
Caco-2 [8]; 1000 nM
  cell viability: 85.2%
Caco-2 [8]; 10000 nM
  cell viability: 53.3%
Vero E6 [9]; 1 nM
  cell viability: 103%
Vero E6 [9]; 10 nM
  cell viability: 99%
Vero E6 [9]; 100 nM
  cell viability: 103%
Vero E6 [9]; 1000 nM
  cell viability: 101%
Vero E6 [9]; 10000 nM
  cell viability: 78.1%
U2OS [10]; 1 nM
  cell viability: 99.9%
U2OS [10]; 10 nM
  cell viability: 97.9%
U2OS [10]; 100 nM
  cell viability: 102%
U2OS [10]; 1000 nM
  cell viability: 97%
U2OS [10]; 10000 nM
  cell viability: 72.9%
Calu-3 [11]; 1 nM
  cell viability: 94.1%
Calu-3 [11]; 10 nM
  cell viability: 91.6%
Calu-3 [11]; 100 nM
  cell viability: 101%
Calu-3 [11]; 1000 nM
  cell viability: 89.3%
Calu-3 [11]; 10000 nM
  cell viability: 64.8%
HepG2 [12]; 1 nM
  cell viability: 104%
HepG2 [12]; 10 nM
  cell viability: 102%
HepG2 [12]; 100 nM
  cell viability: 95.3%
HepG2 [12]; 1000 nM
  cell viability: 86.4%
HepG2 [12]; 10000 nM
  cell viability: 16.4%

## N#C[C@@H]1CCCN1C(=O)CNC12CC3CC(CC(O)(C3)C1)C2 [vildagliptin]
Vero E6 [1]
  drug sensitivity score: 0
Calu-3 [3]
  drug sensitivity score: 0
HepG2 [4]
  drug sensitivity score: 0

## CC(C)Nc1cc(-c2c[nH]c(C(=O)N[C@H](CO)c3cccc(Cl)c3)c2)c(Cl)cn1 [BVD-523]
HepG2 [14]
  relative viability EC50: 0.703 µM
Caco-2 [7]
  drug sensitivity score: 4.7
Vero E6 [1]
  drug sensitivity score: 4.5
U2OS [2]
  drug sensitivity score: 1.9
Calu-3 [3]
  drug sensitivity score: 3.5
HepG2 [4]
  drug sensitivity score: 10.5
Caco-2 [8]; 1 nM
  cell viability: 105%
Caco-2 [8]; 10 nM
  cell viability: 106%
Caco-2 [8]; 100 nM
  cell viability: 101%
Caco-2 [8]; 1000 nM
  cell viability: 76.7%
Caco-2 [8]; 10000 nM
  cell viability: 61.2%
Vero E6 [9]; 1 nM
  cell viability: 100%
Vero E6 [9]; 10 nM
  cell viability: 104%
Vero E6 [9]; 100 nM
  cell viability: 91.9%
Vero E6 [9]; 1000 nM
  cell viability: 80.7%
Vero E6 [9]; 10000 nM
  cell viability: 52.9%
U2OS [10]; 1 nM
  cell viability: 103%
U2OS [10]; 10 nM
  cell viability: 101%
U2OS [10]; 100 nM
  cell viability: 95.5%
U2OS [10]; 1000 nM
  cell viability: 96.7%
U2OS [10]; 10000 nM
  cell viability: 69.3%
Calu-3 [11]; 1 nM
  cell viability: 106%
Calu-3 [11]; 10 nM
  cell viability: 97.4%
Calu-3 [11]; 100 nM
  cell viability: 89.7%
Calu-3 [11]; 1000 nM
  cell viability: 92.1%
Calu-3 [11]; 10000 nM
  cell viability: 57.5%
HepG2 [12]; 1 nM
  cell viability: 104%
HepG2 [12]; 10 nM
  cell viability: 102%
HepG2 [12]; 100 nM
  cell viability: 92.6%
HepG2 [12]; 1000 nM
  cell viability: 51.4%
HepG2 [12]; 10000 nM
  cell viability: 19.5%

## CCS(=O)(=O)N1CC(CC#N)(n2cc(-c3ncnc4[nH]ccc34)cn2)C1 [baricitinib]
Caco-2 [5]
  relative viability EC50: > 10 µM
Vero E6 [13]
  relative viability EC50: > 10 µM
U2OS [6]
  relative viability EC50: > 10 µM
HepG2 [14]
  relative viability EC50: > 10 µM
Caco-2 [7]
  drug sensitivity score: 0
Vero E6 [1]
  drug sensitivity score: 0
U2OS [2]
  drug sensitivity score: 0
HepG2 [4]
  drug sensitivity score: 0
Caco-2 [8]; 1 nM
  cell viability: 95.6%
Caco-2 [8]; 10 nM
  cell viability: 102%
Caco-2 [8]; 100 nM
  cell viability: 92.9%
Caco-2 [8]; 1000 nM
  cell viability: 97%
Caco-2 [8]; 10000 nM
  cell viability: 99.7%
Vero E6 [9]; 1 nM
  cell viability: 98.6%
Vero E6 [9]; 10 nM
  cell viability: 100%
Vero E6 [9]; 100 nM
  cell viability: 102%
Vero E6 [9]; 1000 nM
  cell viability: 102%
Vero E6 [9]; 10000 nM
  cell viability: 101%
U2OS [10]; 1 nM
  cell viability: 95.4%
U2OS [10]; 10 nM
  cell viability: 98.5%
U2OS [10]; 100 nM
  cell viability: 95.1%
U2OS [10]; 1000 nM
  cell viability: 94.4%
U2OS [10]; 10000 nM
  cell viability: 96.4%
HepG2 [12]; 1 nM
  cell viability: 98.6%
HepG2 [12]; 10 nM
  cell viability: 106%
HepG2 [12]; 100 nM
  cell viability: 91.1%
HepG2 [12]; 1000 nM
  cell viability: 107%
HepG2 [12]; 10000 nM
  cell viability: 90.3%

## CCCCC/C=C\C/C=C\C/C=C\CCCCC(=O)O [gamma-linolenic-acid]
Caco-2 [5]
  relative viability EC50: > 10 µM
Vero E6 [13]
  relative viability EC50: > 10 µM
U2OS [6]
  relative viability EC50: > 10 µM
HepG2 [14]
  relative viability EC50: > 10 µM
Caco-2 [7]
  drug sensitivity score: 0
Vero E6 [1]
  drug sensitivity score: 0
U2OS [2]
  drug sensitivity score: 0
HepG2 [4]
  drug sensitivity score: 0
Caco-2 [8]; 1 nM
  cell viability: 97.9%
Caco-2 [8]; 10 nM
  cell viability: 103%
Caco-2 [8]; 100 nM
  cell viability: 102%
Caco-2 [8]; 1000 nM
  cell viability: 116%
Caco-2 [8]; 10000 nM
  cell viability: 94%
Vero E6 [9]; 1 nM
  cell viability: 98.2%
Vero E6 [9]; 10 nM
  cell viability: 103%
Vero E6 [9]; 100 nM
  cell viability: 97.2%
Vero E6 [9]; 1000 nM
  cell viability: 103%
Vero E6 [9]; 10000 nM
  cell viability: 100%
U2OS [10]; 1 nM
  cell viability: 106%
U2OS [10]; 10 nM
  cell viability: 106%
U2OS [10]; 100 nM
  cell viability: 98.9%
U2OS [10]; 1000 nM
  cell viability: 103%
U2OS [10]; 10000 nM
  cell viability: 103%
HepG2 [12]; 1 nM
  cell viability: 107%
HepG2 [12]; 10 nM
  cell viability: 115%
HepG2 [12]; 100 nM
  cell viability: 94.8%
HepG2 [12]; 1000 nM
  cell viability: 99.2%
HepG2 [12]; 10000 nM
  cell viability: 107%

## NCCNS(=O)(=O)c1ccc(Cl)c2ccncc12 [CKI-7]
Caco-2 [5]
  relative viability EC50: > 10 µM
U2OS [6]
  relative viability EC50: > 10 µM
HepG2 [14]
  relative viability EC50: > 10 µM
Caco-2 [7]
  drug sensitivity score: 0.1
U2OS [2]
  drug sensitivity score: 0
HepG2 [4]
  drug sensitivity score: 0
Caco-2 [8]; 1 nM
  cell viability: 105%
Caco-2 [8]; 10 nM
  cell viability: 110%
Caco-2 [8]; 100 nM
  cell viability: 102%
Caco-2 [8]; 1000 nM
  cell viability: 102%
Caco-2 [8]; 10000 nM
  cell viability: 86.1%
U2OS [10]; 1 nM
  cell viability: 95.6%
U2OS [10]; 10 nM
  cell viability: 100%
U2OS [10]; 100 nM
  cell viability: 98.8%
U2OS [10]; 1000 nM
  cell viability: 102%
U2OS [10]; 10000 nM
  cell viability: 98.7%
HepG2 [12]; 1 nM
  cell viability: 110%
HepG2 [12]; 10 nM
  cell viability: 94.9%
HepG2 [12]; 100 nM
  cell viability: 105%
HepG2 [12]; 1000 nM
  cell viability: 102%
HepG2 [12]; 10000 nM
  cell viability: 107%

## CC(O)c1cc(C(=O)N[C@@H](C)Cn2ccc(-c3ccc(C#N)c(Cl)c3)n2)n[nH]1 (some centres not stated) [ODM-201]
Caco-2 [5]
  relative viability EC50: > 10 µM
Vero E6 [13]
  relative viability EC50: > 10 µM
U2OS [6]
  relative viability EC50: > 10 µM
HepG2 [14]
  relative viability EC50: > 10 µM
Caco-2 [7]
  drug sensitivity score: 0
Vero E6 [1]
  drug sensitivity score: 0
U2OS [2]
  drug sensitivity score: 0
HepG2 [4]
  drug sensitivity score: 0
Caco-2 [8]; 1 nM
  cell viability: 104%
Caco-2 [8]; 10 nM
  cell viability: 89.8%
Caco-2 [8]; 100 nM
  cell viability: 102%
Caco-2 [8]; 1000 nM
  cell viability: 106%
Caco-2 [8]; 10000 nM
  cell viability: 103%
Vero E6 [9]; 1 nM
  cell viability: 95.6%
Vero E6 [9]; 10 nM
  cell viability: 101%
Vero E6 [9]; 100 nM
  cell viability: 93.1%
Vero E6 [9]; 1000 nM
  cell viability: 94.5%
Vero E6 [9]; 10000 nM
  cell viability: 103%
U2OS [10]; 1 nM
  cell viability: 98.3%
U2OS [10]; 10 nM
  cell viability: 98.2%
U2OS [10]; 100 nM
  cell viability: 103%
U2OS [10]; 1000 nM
  cell viability: 93.4%
U2OS [10]; 10000 nM
  cell viability: 111%
HepG2 [12]; 1 nM
  cell viability: 88.1%
HepG2 [12]; 10 nM
  cell viability: 111%
HepG2 [12]; 100 nM
  cell viability: 92.6%
HepG2 [12]; 1000 nM
  cell viability: 112%
HepG2 [12]; 10000 nM
  cell viability: 105%
